Data reported in ChEMBL document CHEMBL5370565, “Inhibition of Cysteine Proteases via Thiol-Michael Addition Explains the Anti-SARS-CoV-2 and Bioactive Properties of Arteannuin B” (J Nat Prod, 2023).

Tested on: SARS-CoV-2
Experiment: Antiviral activity against SARS-CoV-2 nCoV-2019BetaCoV/Wuhan/WIV04/2019 infected in African green monkey Vero E6 cells assessed as reduction in viral yield preincubated with cells for 1 hrs followed by viral infection for 1 hrs with subsequent replacement of fresh media containing compound and measured 24 hrs post infection by qRT-PCR analysis
Assay type: functional, organism-based
Conditions: Severe acute respiratory syndrome coronavirus 2, nCoV-2019BetaCoV/Wuhan/WIV04/2019, Vero C1008

## C=C1C(=O)O[C@@]23C1CC[C@@H](C)[C@@H]2CC[C@@]1(C)O[C@@H]31 (stereo partly specified)
  EC50: 10.3 µM
